Results reported in patent US11912706B2, “Crystal forms of a POL1 inhibitor” (PIMERA, INC., priority 2017, dated 2024).
Values after ≈ are worked out from the molar mass of the structure shown.

Key:
Format in all cases: physicochemical
[1] = Rapid solvent solubility screen; details: thermodynamic from solid
Procedure: Thirteen solvents were chosen for a rapid solvent solubility screen (See, Table 1). 10 mg of multiphasic Compound (I) prepared according to Example 1 was placed in each of 13 vials and 5 volume aliquots of the appropriate solvent systems were added to each vial.
Between each addition, the mixture was checked for dissolution and if no dissolution was apparent, the mixture was heated to 40° C. and checked again. This procedure was continued until dissolution was observed or until 100 volumes of solvent had been added.

[2] = Gravimetric Vapor Sorption (GVS); details: up to 90% relative humidity (RH)
Procedure: Approximately 10-20 mg of sample was placed into a mesh vapor sorption balance pan and loaded into an IGAsorp Moisture Sorption Analyzer balance by Hiden Analytical.
The sample was subjected to a ramping profile from 40% to 90% relative humidity (RH) at 10% increments, maintaining the sample at each step until a stable weight had been achieved (98% step completion). After completion of the sorption cycle, the sample was dried using the same procedure to 0% RH, and finally taken back to the starting point of 40% RH. The weight change during the sorption/desorption cycles was plotted, allowing for the hygroscopic nature of the sample to be determined.

[3] = 7 day stability test of crystal forms (PXRD post storage); details: 7-day storage
Procedure: 10 mg of Forms 1, 2, 3, 4 and 5 were weighed out into separate vials.
[…] After completion, PXRD analysis was performed on each of these samples.

[4] = Further stability studies of Form 1 (2 and 4 weeks; PXRD, NMR, HPLC)
Procedure: 10 mg of Form 1 was weighed out into each of 12 vials. […] vials were placed in each storage condition of: (1) 40° C. with an open cap; (2) 75% RH with an open cap; (3) 50° C. with a closed cap; and (4) room temperature with a closed cap.
Two (2) vials were extracted at each time point of 2 and 4 weeks and PXRD, NMR and HPLC analysis was performed.

[5] = Competitive slurrying of Form 1 and Form 5; details: dichloromethane, heptane, methanol; ambient, 60° C. or 35° C.; 24 hours
Procedure: Saturated solutions of Compound (I) in multiphasic form were created in two solutions each dichloromethane, heptane and methanol.
10 mg of Form 1 and Form 5 were added to each vial. […] was stirred at ambient conditions for a period of 24 hours, while the other heptane and methanol vials were stirred at 60° C. for 24 hours.
The remaining dichloromethane vial was stirred at 35° C. for 24 hours. The resulting material was analyzed by PXRD, before being dried with a vacuum pump overnight to dry before DSC analysis of samples.

[6] = ambient conditions (closed vial)

SMILES: CNC(=O)c1cc2ccc(N3CCCN(C)CC3)nc2n2c1nc1ccccc12 [Compound (I), N-methyl-2-(4-methyl-1,4-diazepan-1-yl)benzo[4,5]imidazo[1,2-a][1,8]naphthyridine-6-carbaxomide]
- solubility ([1]; acetonitrile, 40 °C, organic solvent or mixture): < 10000 µg/mL
- solubility ([1]; dichloromethane, organic solvent or mixture): 200000 µg/mL (≈ 515 mM)
- solubility ([1]; dimethylformamide, 40 °C, organic solvent or mixture): < 10000 µg/mL
- solubility ([1]; ethanol, 40 °C, organic solvent or mixture): < 10000 µg/mL
- solubility ([1]; ethyl acetate, 40 °C, organic solvent or mixture): < 10000 µg/mL
- solubility ([1]; heptane, 40 °C, organic solvent or mixture): < 10000 µg/mL
- solubility ([1]; majority of the thirteen solvents assessed, 40 °C, organic solvent or mixture, majority of solvents assessed): < 10000 µg/mL
- solubility ([1]; methanol, organic solvent or mixture): 12500 µg/mL (≈ 32.2 mM)
- solubility ([1]; organic solvent or mixture, Acetone, up to 100 volumes, heated to 40° C. if no dissolution): < 10000 µg/mL
- solubility ([1]; propan-2-ol, 40 °C, organic solvent or mixture): < 10000 µg/mL
- solubility ([1]; t-butylmethyl ether, 40 °C, organic solvent or mixture): < 10000 µg/mL
- solubility ([1]; tetrahydrofuran, 40 °C, organic solvent or mixture): < 10000 µg/mL
- solubility ([1]; toluene, 40 °C, organic solvent or mixture): < 10000 µg/mL
- solubility ([1]; water, 40 °C): < 10000 µg/mL
- hygroscopic nature (GVS) [2]: non-hygroscopic
- mass uptake (GVS) [2]: 0.8%

SMILES: CNC(=O)c1cc2ccc(N3CCCN(C)CC3)nc2n2c1nc1ccccc12 [Form 1, N-methyl-2-(4-methyl-1,4-diazepan-1-yl)benzo[4,5]imidazo[1,2-a][1,8]naphthyridine-6-carbaxomide]
- Form stability after storage (PXRD) ([3]; 40° C./75% RH (closed vial)): stable and maintains its form
- Form stability after storage (PXRD) [3, 6]: stable and maintains its form
- Structural integrity post stability testing (NMR) ([4]; 2 and 4 weeks, 40° C./75% RH, 50° C., room temperature): maintains its structural integrity and does not degrade
- Form stability after storage (PXRD) ([4]; 2 weeks and 4 weeks, 40° C./75% RH, 50° C. and RT): stable and maintains its form
- % Purity (HPLC) post stability studies ([4]; 40° C./75% Relative Humidity, 2 weeks): 99.3%
- % Purity (HPLC) post stability studies ([4]; 40° C./75% Relative Humidity, 4 weeks): 99.6%
- % Purity (HPLC) post stability studies ([4]; 50° C./Ambient % RH, 2 weeks): 99.4%
- % Purity (HPLC) post stability studies ([4]; 50° C./Ambient % RH, 4 weeks): 99.7%
- % Purity (HPLC) post stability studies ([4]; Room Temperature, 2 weeks): 99.2%
- % Purity (HPLC) post stability studies ([4]; Room Temperature, 4 weeks): 99.1%

SMILES: CNC(=O)c1cc2ccc(N3CCCN(C)CC3)nc2n2c1nc1ccccc12 [Form 2, N-methyl-2-(4-methyl-1,4-diazepan-1-yl)benzo[4,5]imidazo[1,2-a][1,8]naphthyridine-6-carbaxomide]
- Form stability after storage (PXRD) ([3]; 40° C./75% RH (closed vial)): transitions to Form 1
- Form stability after storage (PXRD) [3, 6]: stable and maintains its form

SMILES: CNC(=O)c1cc2ccc(N3CCCN(C)CC3)nc2n2c1nc1ccccc12 [Form 5, N-methyl-2-(4-methyl-1,4-diazepan-1-yl)benzo[4,5]imidazo[1,2-a][1,8]naphthyridine-6-carbaxomide]
- Form stability after storage (PXRD) ([3]; 40° C./75% RH (closed vial)): stable and maintains its form
- Form stability after storage (PXRD) [3, 6]: stable and maintains its form
- Form transition in competitive slurry (PXRD of damp slurry residue) [5]: transition from Form 5 towards Form 1

SMILES: CNC(=O)c1cc2ccc(N3CCCN(C)CC3)nc2n2c1nc1ccccc12 [Form 3, N-methyl-2-(4-methyl-1,4-diazepan-1-yl)benzo[4,5]imidazo[1,2-a][1,8]naphthyridine-6-carbaxomide]
- Form stability after storage (PXRD) ([3]; 40° C./75% RH (closed vial)): transitions to Form 1
- Form stability after storage (PXRD) [3, 6]: stable and maintains its form

SMILES: CNC(=O)c1cc2ccc(N3CCCN(C)CC3)nc2n2c1nc1ccccc12 [Form 4, N-methyl-2-(4-methyl-1,4-diazepan-1-yl)benzo[4,5]imidazo[1,2-a][1,8]naphthyridine-6-carbaxomide]
- Form stability after storage (PXRD) ([3]; 40° C./75% RH (closed vial)): transitions to Form 1
- Form stability after storage (PXRD) [3, 6]: stable and maintains its form
